According to US8815813B2, “Methods for treating immune-mediated Dengue Fever infections and antibody-dependent enhancement of Dengue Fever infections, including Dengue Hemorrhagic Fever and Dengue Shock Syndrome” (priority 2008, dated 2014):
Read-outs that look alike come from different tables or passages of the source. No end group written: not given here.

Columns and labels:
FcγIIb/c = format: binding
Fcγ1 = format: binding
FcγIIa (H131 allele) = format: binding
recombinant TNF-α = format: binding
FcγIIIa = format: binding
[1] = system: Dengue Virus recombinant NS1; format: binding; details: summary of Table 6
Procedure: PAP IC were incubated with either no peptide or with SEQ ID NO:20 for one hour.

FcγIIb = format: binding
recombinant human FcγIIa = format: binding
Procedure: The results of 1:250 and 1:500 serial dilutions (ADE was most evident at serum dilutions of 1:250 to 1:500) of the DENV-IgG-IC were tested against inhibition of DENV-IgG-IC binding to huFcγRIIa coated microtiter wells. Results using huFcγRIIa coated wells with either a 1:250 dilution of DENV-IgG-IC with no inhibitor, a 1:250 dilution of DENV-IgG-IC with SEQ ID NO:20, a 1:500 dilution of DENV-IgG-IC with no inhibitor, and a 1:500 dilution of DENV-IgG-IC with SEQ ID NO:20 are shown in Table 5.

human C1q = experiment: Reverse ELISA: inhibition of PAP immune complex binding to C1q coated plates
FcγIIIb (NA2) = format: binding
FcγIIa (R131 allele) = experiment: Reverse ELISA: inhibition of PAP-IC binding to FcγIIa (R131 allele) coated plates; details: PAP pre-incubated with peptide 1 h; positive control 1.599

Chain of FcγIIIb (NA2) (O75015 17-200): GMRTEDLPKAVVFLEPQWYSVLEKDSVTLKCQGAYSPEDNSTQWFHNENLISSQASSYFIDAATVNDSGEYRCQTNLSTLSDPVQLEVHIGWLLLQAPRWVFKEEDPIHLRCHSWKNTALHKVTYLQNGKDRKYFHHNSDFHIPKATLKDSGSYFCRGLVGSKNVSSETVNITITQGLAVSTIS

## Ala-Pro-Pro-Asp-Cys-Ala-Trp-His-Leu-Gly-Glu-Leu-Val-Trp-Cys-Thr [SEQ ID NO:20]
FcγIIb/c
  FcγIIb/c (read at 405 nm): 0.266
Fcγ1
  % inhibition of IC binding, Fcγ1: 89%
  Fcγ1 (read at 405 nm): 0.264
FcγIIa (H131 allele)
  FcγIIa* (H131 allele) (read at 405 nm): 0.209
Recombinant TNF-α
  OD405: 0.086
  inhibition of PAP-IC binding to recombinant TNFα coated plates (in words): marked ability to inhibit the binding
FcγIIIa
  OD405 FcγIIIa: 0.670
[1]
  inhibition of PAP-IC binding to recombinant DENV NS1 coated plates (in words): marked ability to inhibit the binding
FcγIIb
  OD405 FcγIIb: 0.496
Recombinant human FcγIIa; 1:250 dilution of DENV2 (16681)-DENV convalescent IgG-IC, no peptide control 2.885
  DENV-IgG-IC binding to huFcγRIIa coated wells (ELISA reading): 0.265
Recombinant human FcγIIa; 1:500 dilution of DENV2 (16681)-DENV convalescent IgG-IC, no peptide control 2.362
  DENV-IgG-IC binding to huFcγRIIa coated wells (ELISA reading): 0.289
Recombinant human FcγIIa; summary of Table 5
  inhibition of DENV2-anti-DENV convalescent IgG-IC binding to FcγIIa coated plates (in words): marked ability to inhibit binding
Human C1q
  inhibition of C1q binding (ranking in words): greatest inhibition of C1q binding
FcγIIIb (NA2)
  % inhibition of IC binding, FcγIIIb (NA2): 91%
  FcγIIIb (NA2) (read at 405 nm): 0.266

## APPCAFHLGELVWCT (cysteine pairing not given here) [SEQ ID NO:18]
FcγIIIa
  OD405 FcγIIIa: 0.880
FcγIIb
  OD405 FcγIIb: 0.380

## Asp-Cys-Ala-Phe-His-Leu-Gly-Glu-Leu-Val-Trp-Cys-Thr [SEQ ID NO:3]
FcγIIIa
  OD405 FcγIIIa: 0.810
FcγIIb
  OD405 FcγIIb: 0.510

## APPCAWHLGELVWCT (cysteine pairing not given here) [SEQ ID NO:14]
FcγIIIa
  OD405 FcγIIIa: 0.530
FcγIIb
  OD405 FcγIIb: 0.562

## APPCARHLGELVWCT (cysteine pairing not given here) [SEQ ID NO:16]
FcγIIIa
  OD405 FcγIIIa: 0.709
FcγIIb
  OD405 FcγIIb: 0.768
Human C1q
  inhibition of C1q binding (ranking in words): next best result

## Asp-Cys-Ala-Trp-His-Leu-Gly-Glu-Leu-Val-Trp-Cys-Thr [SEQ ID NO:2]
FcγIIa (R131 allele)
  OD405 FcγIIa (R131 allele): 0.561
FcγIIIa
  OD405 FcγIIIa: 0.741
FcγIIb
  OD405 FcγIIb: 0.532
